Data taken from patent publication US10669283B2, “Compound and pharmacologically acceptable salt thereof” (MEIJI SEIKA PHARMA CO., LTD., priority 2016, dated 2020).
Read-outs that look alike come from different tables or passages of the source.

System: PDE4
Experiment: PDE4 inhibition, scintillation proximity assay (SPA);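 on PDE4 Inhibitory Activity (concentration for the inhibition rate of 50%): A below 100 nM B 100 to below 1000 nM C 1000 nM or more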
Assay type: biochemical
Summary of the method: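 Compound pre-diluted 1:10 in 50 mM Tris-HCl pH 7.4, 8.3 mM MgCl2, 1.7 mM EGTA, 3 mg/mL BSA, then incubated with PDE4 and [2,8-3H]-cAMP for 120 min at room temperature. Product captured on ZnSO4-containing YSi-SPA beads for 15 min; radioactivity counted against no-enzyme blank and DMSO control.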

[1] = scintillation proximity assay (SPA), evaluated as classes A, B, C, read-out: PDE4 Inhibitory Activity (concentration for the inhibition rate of 50%)
[2] = scintillation proximity assay, class symbols, read-out: PDE4 Inhibitory Activity

SMILES	IC50 [1] [nM]	IC50 [2] [nM]
OC(c1cc(-c2nccs2)c2oc(N3CC4CC(C3)N4)nc2c1OC(F)(F)F)C(F)F (stereo not shown) [Example 292, 1-(2-(3,6-Diazabicyclo[3.1.1]heptan-3-yl)-7-(thiazol-2-yl)-4-(trifluoromethoxy)benzo[d]oxazol-5-yl)-2,2-difluoroethan-1-ol]	< 100	
OC(c1cc(-c2nccs2)c2oc(N3CC4CC(C3)N4)nc2c1OC(F)(F)F)C(F)F (stereo not shown) [Example 293, 1-(2-(3,6-Diazabicyclo[3.1.1]heptan-3-yl)-7-(thiazol-2-yl)-4-(trifluoromethoxy)benzo[d]oxazol-5-yl)-2,2-difluoroethan-1-ol]	< 100	
CC(C)(O)CC(F)(F)Oc1ccc(-c2nccs2)c2oc(N3CC4CC(C3)N4)nc12 [Example 295, 4-((2-(3,6-Diazabicyclo[3.1.1]heptan-3-yl)-7-(thiazol-2-yl)benzo[d]oxazol-4-yl)oxy)-4,4-difluoro-2-methylbutan-2-ol]	< 100	
CC(O)(c1ccc(-c2nccs2)c2oc(N3CC4CC(C3)N4)nc12)C(F)F (stereo not shown) [Example 296, 2-(2-(3,6-Diazabicyclo[3.1.1]heptan-3-yl)-7-(thiazol-2-yl)benzo[d]oxazol-4-yl)-1,1-difluoropropan-2-ol]	< 100	
CC(O)(c1ccc(-c2nccs2)c2oc(N3CC4CC(C3)N4)nc12)C(F)F (stereo not shown) [Example 297, 2-(2-(3,6-Diazabicyclo[3.1.1]heptan-3-yl)-7-(thiazol-2-yl)benzo[d]oxazol-4-yl)-1,1-difluoropropan-2-ol]	< 100	
COC(C)(C)c1cc(-c2cscn2)c2oc(N3CC4CCC(C3)N4)nc2c1OC(F)(F)F [Example 298, 2-(3,8-Diazabicyclo[3.2.1]octan-3-yl)-5-(2-methoxypropan-2-yl)-7-(thiazol-4-yl)-4-(trifluoromethoxy)benzo[d]oxazole]	< 100	
OC1(c2cc(-c3cscn3)c3oc(N4CC5CC(C4)N5)nc3c2OC(F)(F)F)CC1 [Example 299, 1-(2-(3,6-Diazabicyclo[3.1.1]heptan-3-yl)-7-(thiazol-4-yl)-4-(trifluoromethoxy)benzo[d]oxazol-5-yl)cyclopropan-1-ol]	< 100	
OC(c1cc(-c2cscn2)c2oc(N3CC4CC(C3)N4)nc2c1OC(F)(F)F)C(F)F (stereo not shown) [Example 300, 1-(2-(3,6-Diazabicyclo[3.1.1]heptan-3-yl)-7-(thiazol-4-yl)-4-(trifluoromethoxy)benzo[d]oxazol-5-yl)-2,2-difluoroethan-1-ol]	< 100	
OC(c1cc(-c2cscn2)c2oc(N3CC4CC(C3)N4)nc2c1OC(F)(F)F)C(F)F (stereo not shown) [Example 301, 1-(2-(3,6-Diazabicyclo[3.1.1]heptan-3-yl)-7-(thiazol-4-yl)-4-(trifluoromethoxy)benzo[d]oxazol-5-yl)-2,2-difluoroethan-1-ol]	< 100	
OC(c1cc(-c2cscn2)c2oc(N3CC4CCC(C3)N4)nc2c1OC(F)(F)F)C(F)F (stereo not shown) [Example 302, 1-(2-(3,8-Diazabicyclo[3.2.1]octan-3-yl)-7-(thiazol-4-yl)-4-(trifluoromethoxy)benzo[d]oxazol-5-yl)-2,2-difluoroethan-1-ol]	< 100	
OC(c1cc(-c2cscn2)c2oc(N3CC4CCC(C3)N4)nc2c1OC(F)(F)F)C(F)F (stereo not shown) [Example 303, 1-(2-(3,8-Diazabicyclo[3.2.1]octan-3-yl)-7-(thiazol-4-yl)-4-(trifluoromethoxy)benzo[d]oxazol-5-yl)-2,2-difluoroethan-1-ol]	< 100	
OC1CCC(Oc2ccc(-c3nccs3)c3oc(N4CC5CC(C4)N5)nc23)CC1 (stereo not shown) [Example 305, 4-((2-(3,6-Diazabicyclo[3.1.1]heptan-3-yl)-7-(thiazol-2-yl)benzo[d]oxazol-4-yl)oxy)cyclohexan-1-ol]	< 100	
CC(C)(O)C(F)(F)Oc1ccc(-c2cscn2)c2oc(N3CC4CC(C3)N4)nc12 [Example 307, 1-((2-(3,6-Diazabicyclo[3.1.1]heptan-3-yl)-7-(thiazol-4-yl)benzo[d]oxazol-4-yl)oxy)-1,1-difluoro-2-methylpropan-2-ol]	< 100	
CC(C)(O)C(F)(F)Oc1ccc(-c2cscn2)c2oc(N3CC4CCC(C3)N4)nc12 [Example 308, 1-((2-(3,8-Diazabicyclo[3.2.1]octan-3-yl)-7-(thiazol-4-yl)benzo[d]oxazol-4-yl)oxy)-1,1-difluoro-2-methylpropan-2-ol]	< 100	
CC(O)C(F)(F)Oc1ccc(-c2cscn2)c2oc(N3CC4CC(C3)N4)nc12 (stereo not shown) [Example 309, 1-((2-(3,6-Diazabicyclo[3.1.1]heptan-3-yl)-7-(thiazol-4-yl)benzo[d]oxazol-4-yl)oxy)-1,1-difluoropropan-2-ol]	< 100	
CC(O)C(F)(F)Oc1ccc(-c2cscn2)c2oc(N3CC4CCC(C3)N4)nc12 (stereo not shown) [Example 310, 1-((2-(3,8-Diazabicyclo[3.2.1]octan-3-yl)-7-(thiazol-4-yl)benzo[d]oxazol-4-yl)oxy)-1,1-difluoropropan-2-ol]	< 100	
OCC(F)(F)Oc1ccc(-c2cscn2)c2oc(N3CC4CC(C3)N4)nc12 [Example 311, 2-((2-(3,6-Diazabicyclo[3.1.1]heptan-3-yl)-7-(thiazol-4-yl)benzo[d]oxazol-4-yl)oxy)-2,2-difluoroethan-1-ol]	< 100	

SMILES	IC50 [1] [nM]	IC50 [2] [nM]
OCC(F)(F)Oc1ccc(-c2cscn2)c2oc(N3CC4CCC(C3)N4)nc12 [Example 312, 2-((2-(3,8-Diazabicyclo[3.2.1]octan-3-yl)-7-(thiazol-4-yl)benzo[d]oxazol-4-yl)oxy)-2,2-difluoroethan-1-ol]	< 100	
CC(C)(O)C(Oc1ccc(-c2nccs2)c2oc(N3CC4CC(C3)N4)nc12)C(F)(F)F (stereo not shown) [Example 313, 3-((2-(3,6-Diazabicyclo[3.1.1]heptan-3-yl)-7-(thiazol-2-yl)benzo[d]oxazol-4-yl)oxy)-4,4,4-trifluoro-2-methylbutan-2-ol]	< 100	
O=S1(=O)CCC(Oc2ccc(-c3nccs3)c3oc(N4CC5CC(C4)N5)nc23)CC1 [Example 314, 4-((2-(3,6-Diazabicyclo[3.1.1]heptan-3-yl)-7-(thiazol-2-yl)benzo[d]oxazol-4-yl)oxy)tetrahydro-2H-thiopyran 1,1-dioxide]	< 100	
OCC(F)(F)Oc1ccc(-n2cccn2)c2oc(N3CC4CC(C3)N4)nc12 [Example 320, 2-((2-(3,6-Diazabicyclo[3.1.1]heptan-3-yl)-7-(1H-pyrazol-1-yl)benzo[d]oxazol-4-yl)oxy)-2,2-difluoroethan-1-ol]	< 100	
c1csc(-c2ccc(C3CC3)c3nc(N4CC5CC(C4)N5)oc23)n1 [Example 344, 2-(3,6-diazabicyclo [3.1.1]heptan-3-yl)-4-cyclopropyl-7-(thiazol-2-yl)benzo[d] oxazole]		< 100
CSc1ccc(-c2nccs2)c2oc(N3CC4CC(C3)N4)nc12 [Example 345, 2-(3,6-diazabicyclo[3.1.1]heptan-3-yl)-4-(methylthio)-7-(thiazol-2-yl)benzo [d]oxazole]		< 100
C=CC(F)(F)Oc1ccc(-c2nccs2)c2oc(N3CC4CC(C3)N4)nc12 [Example 351, 2-(3,6-diazabicyclo[3.1.1]heptan-3-yl)-4-((1,1-difluoroallyl)oxy)-7-(thiazol-2-yl)benzo[d] oxazole]		< 100
O=C(NCc1ccccc1)c1ccc(-c2nccs2)c2oc(N3CC4CC(C3)N4)nc12 [Example 361, N-benzyl-2-(3,6-diazabicyclo [3.1.1]heptan-3-yl)-7-(thiazol-2-yl) benzo oxazole-4-carboxamide]		< 100
CC(C)C(O)C(F)(F)Oc1ccc(-c2nccs2)c2oc(N3CC4CC(C3)N4)nc12 (stereo not shown) [Example 362, 1-((2-(3,6-diazabicyclo [3.1.1]heptan-3-yl)-7-(thiazol-2-yl)benzo[d]oxazol-4-yl)oxy)-1,1-difluoro-3-methylbutan-2-ol]		< 100
O=C(O)c1ccc(-c2nccs2)c2oc(N3CC4CC(C3)N4)nc12 [Example 366, 2-(3,6-diazabicyclo [3.1.1]heptan-3-yl)-7-(thiazol-2-yl)benzo[d] oxazole-4-carboxylic acid]		100 to 1000
O=C(NO)c1ccc(-c2nccs2)c2oc(N3CC4CC(C3)N4)nc12 [Example 367, 2-(3,6-diazabicyclo[3.1.1]heptan-3-yl)-N-hydroxy-7-(thiazol-2-yl)benzo[d] oxazole-4-carboxamide]		< 100
CC(C)(O)c1cc(-c2nccs2)c2oc(N3CC4CCC(C3)N4O)nc2c1OC(F)(F)F [Example 368, 3-(5-(2-hydroxy-propan-2-yl)-7-(thiazol-2-yl)-4-(trifluoromethoxy)benzo[d]oxazol-2-yl)-3,8-diazabicyclo [3.2.1]octan-8-ol]		100 to 1000
CC(C)(O)C(F)(F)Oc1ccc(-c2nccs2)c2oc(N3CC4CC(C3)N4O)nc12 [Example 371, 3-(4-(1,1-difluoro-2-hydroxy-2-methylpropoxy)-7-(thiazol-2-yl)benzo[d]oxazol-2-yl)-3,6-diazabicyclo [3.1.1]heptan-6-ol]		< 100
ON1C2CCC1CN(c1nc3c(OC(F)(F)F)c(Cl)cc(-c4nccs4)c3o1)C2 [Example 375, 3-(5-chloro-7-(thiazol-2-yl)-4-(trifluoro-methoxy)benzo[d]oxazol-2-yl)-3,8-diazabicyclo[3.2.1] octan-8-ol]		< 100
CC(O)(O)C(F)(F)Oc1ccc(-c2nccs2)c2oc(N3CC4CC(C3)N4)nc12 [Example 377, 1-((2-(3,6-diazabicyclo[3.1.1]heptan-3-yl)-7-(thiazol-2-yl)benzo[d]oxazol-4-yl)oxy)-1,1-difluoropropane-2,2-diol]		< 100
OC(c1ccc(-c2nccs2)c2oc(N3CC4CCC(C3)N4O)nc12)C(F)(F)F (stereo not shown) [Example 378, 3-(7-(thiazol-2-yl)-4-(2,2,2-trifluoro-1-hydroxyethyl)benzo[d]oxazol-2-yl)-3,8-diazabicyclo[3.2.1] octan-8-ol]		100 to 1000
OC(c1ccc(-c2nccs2)c2oc(N3CC4CCC(C3)N4O)nc12)C(F)(F)F (stereo not shown) [Example 379, 3-(7-(thiazol-2-yl)-4-(2,2,2-trifluoro-1-hydroxyethyl)benzo[d]oxazol-2-yl)-3,8-diaza-bicyclo[3.2.1] octan-8-ol]		< 100
